In the NIST ThermoML archive (doi:10.1016/j.jct.2013.05.047):

Experiments:
[1] = Molar enthalpy of transition or fusion; conditions: Crystal; DSC
[2] = for vapor or sublimation pressure: Closed cell (Static) method; for Normal melting temperature: DTA

Oc1ccc(F)cc1 [4-fluorophenol]
Conditions	Molar enthalpy of transition or fusion [kcal/mol]
[1]	3.47

vapor or sublimation pressure [kPa], [2]
Conditions	Crystal	Liquid
265.62 K	0.00084	–
267.58 K	0.00108	–
269.54 K	0.00137	–
271.5 K	0.00174	–
273.49 K	0.00222	–
275.43 K	0.00279	–
277.43 K	0.00353	–
279.39 K	0.00443	–
281.38 K	0.00555	–
283.36 K	0.00696	–
285.33 K	0.00863	–
287.34 K	0.01071	–
289.29 K	0.01329	–
291.3 K	0.01648	–
291.39 K	–	0.02895
293.29 K	0.02028	–
293.35 K	–	0.03339
295.26 K	0.02476	–
295.34 K	–	0.0394
297.24 K	0.03044	–
297.32 K	–	0.04637
299.25 K	0.03741	0.05448
301.19 K	0.04503	–
301.24 K	–	0.06387
303.21 K	0.05518	–
303.22 K	–	0.07471
305.19 K	0.06658	–
305.24 K	–	0.08751
307.18 K	0.08105	–
307.21 K	–	0.1019
309.16 K	0.09599	–
309.2 K	–	0.1187
311.12 K	0.1152	–
311.17 K	–	0.1369
313.11 K	0.1383	–
313.15 K	–	0.1588
315.06 K	–	0.1811
315.1 K	0.1647	–
317.01 K	–	0.2084
317.07 K	0.197	–
319.02 K	–	0.2365
321.01 K	–	0.2738
323.1 K	–	0.3152
325.09 K	–	0.3611
327.06 K	–	0.4129
329.05 K	–	0.4644
331.02 K	–	0.5332
333.01 K	–	0.5995
335 K	–	0.6828
336.96 K	–	0.7646
338.93 K	–	0.8651
340.78 K	–	0.9558
342.84 K	–	1.084

Conditions	Normal melting temperature [°C]
[2], Crystal	47.2

Oc1ccc(I)cc1 [4-iodophenol]
Conditions	Molar enthalpy of transition or fusion [kcal/mol]
[1]	4.97

vapor or sublimation pressure [kPa], [2]
Conditions	Crystal	Liquid
307.15 K	0.00064	–
309.13 K	0.00079	–
311.09 K	0.00098	–
313.1 K	0.00123	–
315.1 K	0.00152	–
317.05 K	0.00189	–
319.1 K	0.00236	–
321.01 K	0.00288	–
323.01 K	0.00353	–
325.06 K	0.00436	–
326.95 K	0.00527	–
329.02 K	0.00647	–
330.91 K	0.00781	–
332.98 K	0.00956	–
334.88 K	0.01147	–
336.93 K	–	0.02432
336.95 K	0.01399	–
338.83 K	0.01662	–
338.84 K	–	0.02795
340.71 K	–	0.03222
340.9 K	0.02012	–
342.72 K	–	0.03713
342.79 K	0.02397	–
344.73 K	–	0.04253
344.86 K	0.02883	–
346.71 K	0.03411	–
346.73 K	–	0.04894
348.71 K	–	0.05593
348.82 K	0.04092	–
350.67 K	0.0482	–
350.69 K	–	0.06373
352.67 K	–	0.07262
352.76 K	0.05731	–
354.59 K	0.06713	–
354.62 K	–	0.08281
356.58 K	–	0.09387
356.72 K	0.07984	–
358.58 K	0.09351	0.1065
360.56 K	–	0.1204
360.65 K	0.1108	–
362.52 K	–	0.1359
364.52 K	–	0.1533
366.46 K	–	0.1729
368.57 K	–	0.1961
370.44 K	–	0.2178
372.51 K	–	0.2463
374.38 K	–	0.2725
376.46 K	–	0.3075
378.32 K	–	0.3409
380.41 K	–	0.382

Conditions	Normal melting temperature [°C]
[2], Crystal	92.7
